pEC50: −log10 of the molar value.
How the values were obtained:
[1] = target: T1, human CYP11B2 (Homo sapiens, UniProt P19099); assay: G-402 cell enzyme experiment, CYP11B2 (aldosterone product, HTRF); format: cell-based; conditions: G-402 cells stably expressing human CYP11B2, 1 µM 11-deoxycorticosterone, 16 h
T1 construct: The main elements of an expression plasmid include ORF of human CYP11B1 or human CYP11B2; expressed in transfected cells
T1 sequence (P19099 25-503): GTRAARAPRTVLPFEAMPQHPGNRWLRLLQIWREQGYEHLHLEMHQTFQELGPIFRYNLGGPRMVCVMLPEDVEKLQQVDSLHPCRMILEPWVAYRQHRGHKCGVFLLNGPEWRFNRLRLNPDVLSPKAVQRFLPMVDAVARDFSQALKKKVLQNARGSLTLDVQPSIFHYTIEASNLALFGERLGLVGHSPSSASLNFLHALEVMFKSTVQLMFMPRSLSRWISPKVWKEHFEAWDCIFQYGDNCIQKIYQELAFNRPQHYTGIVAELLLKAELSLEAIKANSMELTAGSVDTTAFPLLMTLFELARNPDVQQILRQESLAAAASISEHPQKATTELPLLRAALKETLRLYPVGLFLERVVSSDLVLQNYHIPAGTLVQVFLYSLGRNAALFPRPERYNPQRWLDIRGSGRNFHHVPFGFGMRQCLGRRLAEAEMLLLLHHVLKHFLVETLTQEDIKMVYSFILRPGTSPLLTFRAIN
Description: (§1) G-402 cell line was used as host cells to express (by transient or stable transfection) an enzyme of the human CYP11 family. Specifically, G-402 cell lines stably expressing human CYP11B1 and human CYP11B2 were established respectively. […] Therefore, the G-402 cell line is very suitable as a host cell for the ectopic expression of an enzyme of the CYP11 family.
(§2) The G-402 cell line, originally derived from renal myoblastoma, can be obtained from ATCC (CRL-1440). The main elements of an expression plasmid include ORF of human CYP11B1 or human CYP11B2, a suitable promoter (CMV promoter), and a suitable resistance marker (neomycin). The expression plasmid was transfected into G-402 cells by standard technology, and a specific antibiotic was then given for screening. The activity of the enzyme expressed by the screened monoclonal cells was assessed by 11-deoxycorticosterone (substrate of CYP11B2) and 11-deoxycortisol (substrate of CYP11B1).
(§3) The G-402 cells expressing CYP11 plasmid, as established in the above solution, were cultured in McCoy's 5a Modified Medium (ATCC Catalog No. 30-2007) containing 10% FCS and 400 µg/ml G418 in an incubator at 37°C and 5% CO2. A cell enzyme experiment was carried out using DMEM/F12 medium containing 2.5% charcoal-treated FBS and an appropriate concentration of a substrate (1 µM 11-deoxycorticosterone or 1 µM 11-deoxycortisol). In order to detect the activity of the enzyme in the cells, the cells were plated in a 96-well plate and incubated for 16 h. The supernatant was then transferred and analyzed for the concentration of the expected product (the product of CYP11B2: aldosterone; the product of CYP11B1: cortisol). The concentrations of these products were determined by an HTRF experiment of CisBio.
(§4) In the cell enzyme experiment, the inhibitory effect of the test compound on the generated product can reflect the inhibitory effect thereof on the enzyme. The dose-dependent inhibition of the enzyme activity by the compound was calculated by plotting the concentration of the test compound (x axis) versus the measured product level (y axis). Then, the original data was fitted to a 4-parameter sigmoidal function (Morgan-Mercer-Flodin, MMF model) by least square method: y = (AB + Cx^D) / (B + x^D) in which A is the maximum y value, B is the EC50 determined by XLFit, C is the minimum y value, and D is the slope value. The maximum value A corresponds to the amount of the product detected without an inhibitor, and C corresponds to the amount of the product detected in the G402 cells expressing an empty plasmid.
(§5) The EC50 value of the compound of the present invention was determined by the above G-402 experiment system. The activity of the CYP11B2 enzyme was determined under the conditions of 1 µM 11-deoxycorticosterone and a variable amount of the inhibitor, and the activity of the CYP11B1 enzyme was determined under the conditions of 1 µM 11-deoxycortisol and a variable amount of the inhibitor.

[2] = target: T2, human CYP11B1 (Homo sapiens, UniProt P15538); assay: G-402 cell enzyme experiment, CYP11B1 (cortisol product, HTRF), selectivity versus CYP11B2; format: cell-based; conditions: human selective factor: ratio of CYP11B1 EC50 to CYP11B2 EC50; G-402 cells
T2 construct: The main elements of an expression plasmid include ORF of human CYP11B1 or human CYP11B2; expressed in transfected cells
T2 sequence (P15538 25-503): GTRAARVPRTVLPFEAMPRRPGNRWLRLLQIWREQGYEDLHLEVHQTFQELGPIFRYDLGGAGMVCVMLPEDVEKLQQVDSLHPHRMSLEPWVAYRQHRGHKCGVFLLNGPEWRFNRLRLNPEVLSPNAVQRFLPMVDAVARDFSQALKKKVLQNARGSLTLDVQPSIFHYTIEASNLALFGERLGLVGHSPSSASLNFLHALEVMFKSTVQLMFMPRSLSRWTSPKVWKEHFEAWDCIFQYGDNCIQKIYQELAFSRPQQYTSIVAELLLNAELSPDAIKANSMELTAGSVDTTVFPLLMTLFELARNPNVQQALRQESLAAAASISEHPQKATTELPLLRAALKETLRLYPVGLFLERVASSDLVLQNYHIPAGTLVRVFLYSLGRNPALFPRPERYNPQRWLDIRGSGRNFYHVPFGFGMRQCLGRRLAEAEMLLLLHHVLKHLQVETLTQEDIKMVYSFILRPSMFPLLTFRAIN
Description: as §1, §2, §3, §4, §5

[3] = Pharmacokinetic determination in rats; format: in vivo; conditions: rat, male SD rats, plasma, oral administration (PO) 5 mg/kg; for MRT inf: read-out: MRT0-∞
Protocol: SD rats were used as test animals to study the pharmacokinetic behavior of the compounds of the present invention in rats (plasma) after oral administration.
3 SD rats per group, male.
Formulation of drug for oral administration: 0.5% CMC-Na (1% Tween 80)
5 g of sodium carboxymethyl cellulose (CMC-Na, viscosity: 800-1200 Cps) was weighed and dissolved in 1000 mL of purified water, and 10 g of Tween 80 was added. These materials were uniformly mixed to form a clear solution.
The example compounds were weighed and dissolved in the solution and the mixture was shaken well and ultrasonicated for 15 min to obtain a colorless clear solution with a concentration of 0.5 mg/mL. Formulation of drug for intravenous administration: 5% DMSO + 10% Solutol HS15 + 85% PBS
After overnight fasting, 3 male SD rats per group were administered orally (PO) at a dose of 5 mg/kg with an administration volume of 10 mL/kg. […]
0.2 mL of blood was collected from the jugular vein of the experimental animals before administration and at 0.25 h, 0.5 h, 1.0 h, 2.0 h, 4.0 h, 6.0 h, 8.0 h, and 24.0 h after administration and placed in an EDTA-2K test tube, and the test tube was centrifuged at 8000 rpm for 6 min at 4°C to separate the plasma, which was stored at -80°C; and the animals were fed 4 h after administration.
3 Experimental results: The final determination results were obtained by using LCMS/MS method.

| pEC50 [1] | hsF [2] [x] | AUC(0-inf) [3] [ng·h/mL] | AUC(0-t) [3] [ng·h/mL] | Cmax [3] [ng/mL] | Tmax [3] [h] | half-life [3] [min] | MRT inf [3] [h] | SMILES |
| --- | --- | --- | --- | --- | --- | --- | --- | --- |
| 8.05 | > 22909 | 33600 | 33600 | 5720 | 2 | 132 | 3.8 | COc1ccc2cc(-c3cncc(N4CC5(CN(C(=O)c6cnn(C)c6)C5)C4)c3)ccc2n1 [Example 23, (6-(5-(2-methoxyquinolin-6-yl)pyridin-3-yl)-2,6-diazaspiro[3.3]heptan-2-yl)(1-methyl-1H-pyrazol-4-yl)methanone] |
| 7.16 | 170 | 22400 | 21800 | 4900 | 2 | 78 | 3.1 | CCC(=O)N[C@@H]1CCCc2c(-c3ccc4c(cnn4C)c3)cncc21 [Example 60, (R)-N-(4-(1-methyl-1H-indazol-5-yl)-5,6,7,8-tetrahydroisoquinolin-8-yl)propanamide] |
| 7.62 | > 8488 | 21600 | 21600 | 3210 | 4 | 114 | 4.7 | [2H]C([2H])([2H])n1cc(C(=O)N2CC3(C2)CN(c2cncc(-c4ccc5nc(OC)ccc5c4)c2)C3)cn1 [Example 78, (6-(5-(2-methoxyquinolin-6-yl)pyridin-3-yl)-2,6-diazaspiro[3.3]heptan-2-yl)(1-(methyl-d3)-1H-pyrazol-4-yl)methanone] |
| 7.92 | 3999 | 16700 | 16700 | 3160 | 4 | 168 | 4.5 | COc1ccc2cc(-c3cncc(N4CC5(CN(C(=O)c6cnn(C)c6)C5)C4)n3)ccc2n1 [Example 79, (6-(6-(2-Methoxyquinolin-6-yl)pyrazin-2-yl)-2,6-diazaspiro[3.3]heptan-2-yl)(1-methyl-1H-pyrazol-4-yl)methanone] |
| 7.92 | 2278 | 18200 | 18200 | 2560 | 1 | 132 | 4.2 | Cn1cc(C(=O)N2CC(Oc3cncc(-c4ccc5c(c4)sc(=O)n5C)c3)C2)cn1 [Example 91, 3-methyl-6-(5-((1-(1-methyl-1H-pyrazole-4-carbonyl)azetidin-3-yl)oxy)pyridin-3-yl)benzo[d]thiazol-2(3H)-one] |
| 7.96 | 1285 | – | – | – | – | – | – | COc1ccc2cc(-c3cncc(N4CC5(CN(C(C)=O)C5)C4)c3)ccc2n1 [Example 92, 1-(6-(5-(2-methoxyquinolin-6-yl)pyridin-3-yl)-2,6-diazaspiro[3.3]heptan-2-yl)ethan-1-one] |
| 7.32 | 229 | – | – | – | – | – | – | COc1ccc2cc(-c3cncc(N4CC5(CN(C(C)=O)C5)C4)n3)ccc2n1 [Example 93, 1-(6-(6-(2-methoxyquinolin-6-yl)pyrazin-2-yl)-2,6-diazaspiro[3.3]heptan-2-yl)ethan-1-one] |
| 7.89 | 350 | – | – | – | – | – | – | COc1ccc2cc(-c3cncc(N4CC5(CN(C(=O)C6(F)CC6)C5)C4)c3)ccc2n1 [Example 94, (1-fluorocyclopropyl)(6-(5-(2-methoxyquinolin-6-yl)pyridin-3-yl)-2,6-diazaspiro[3.3]heptan-2-yl)methanone] |
| 7.96 | 971 | – | – | – | – | – | – | COc1ccc2cc(-c3cncc(N4CC5(CN(C(=O)C6(O)CC6)C5)C4)c3)ccc2n1 [Example 97, (1-hydroxycyclopropyl)(6-(5-(2-methoxyquinolin-6-yl)pyridin-3-yl)-2,6-diazaspiro[3.3]heptan-2-yl)methanone] |
| 8.05 | 1048 | 22500 | 20100 | 3950 | 2 | 120 | 4.1 | COc1ccc2cc(-c3cncc(N4CC5(CN(C(=O)c6ccc(C)nc6)C5)C4)n3)ccc2n1 [Example 100, (6-(6-(2-methoxyquinolin-6-yl)pyrazin-2-yl)-2,6-diazaspiro[3.3]heptan-2-yl)(6-methylpyridin-3-yl)methanone] |
| 7.37 | > 4651 | – | – | – | – | – | – | Cc1ccc(C(=O)N2CC3(C2)CN(c2cncc(-c4ccc5c(c4)sc(=O)n5C)c2)C3)cn1 [Example 101, 3-methyl-6-(5-(6-(6-methylnicotinoyl)-2,6-diazaspiro[3.3]heptan-2-yl)pyridin-3-yl)benzo[d]thiazol-2(3H)-one] |
| 6.98 | > 1923 | – | – | – | – | – | – | Cn1cc(C(=O)N2CC3(C2)CN(c2cncc(-c4ccc5c(c4)sc(=O)n5C)n2)C3)cn1 [Example 107, 3-methyl-6-(6-(6-(1-methyl-1H-pyrazole-4-carbonyl)-2,6-diazaspiro[3.3]heptan-2-yl)pyrazin-2-yl)benzo[d]thiazol-2(3H)-one] |
| 7.15 | > 2817 | – | – | – | – | – | – | COc1ccc2cc(-c3cncc(N4CC5(CC(N6CCc7cc(C)ncc7C6=O)C5)C4)c3)ccc2n1 [Example 108, 2-(2-(5-(2-Methoxyquinolin-6-yl)pyridin-3-yl)-2-azaspiro[3.3]heptan-6-yl)-6-methyl-3,4-dihydro-2,7-diazanaphthalen-1(2H)-one] |
| 8.22 | 159 | – | – | – | – | – | – | COc1ccc2cc(-c3cncc(N4CCC(NC(=O)c5cnn(C)c5)CC4)n3)ccc2n1 [Example 109, N-(1-(6-(2-methoxyquinolin-6-yl)pyrazin-2-yl)piperidin-4-yl)-1-methyl-1H-pyrazole-4-carboxamide] |

Reference: EP4696688A1, “BENZO-FUSED RING COMPOUND INHIBITOR, AND PREPARATION METHOD THEREFOR AND USE THEREOF” (Shanghai Hansoh Biomedical Co., Ltd., priority 2023, dated 2024)
